Read-outs that look alike come from different tables or passages of the source.
What was measured:
Format in all cases: in vivo
[1] = tested on: Diabrotica balteata; test: Diabrotica balteata (corn root worm), sprayed maize sprouts; conditions: 96 h, read-out: effect in at least one of the two categories (mortality or growth inhibition); for percent effect (mortality or growth inhibition) at 200 ppm: application rate 200 ppm, L2 larvae, 4 days after infestation
Procedure, shortened: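 Read-out at 4 days post-infestation: mortality and growth inhibition relative to untreated samples. Test solutions (200 ppm, from DMSO stocks) were sprayed onto agar-held maize sprouts, which after drying received 6–10 L2 larvae per well.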

[2] = tested on: Euschistus heros; test: Euschistus heros (neotropical brown stink bug), sprayed soybean leaves; conditions: 120 h, read-out: effect in at least one of the two categories (mortality or growth inhibition); for percent effect (mortality or growth inhibition) at 200 ppm: application rate 200 ppm, N2 nymphs, 5 days after infestation
Procedure, shortened: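 Scored 5 days post-infestation versus untreated controls, for both mortality and growth inhibition: N2 nymphs placed on agar-mounted soybean leaves previously sprayed at 200 ppm with aqueous test solutions from DMSO stocks and left to dry.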

[3] = tested on: Myzus persicae; test: Myzus persicae (green peach aphid): feeding/contact activity; conditions: 144 h
Description: Sunflower leaf discs were placed onto agar in a 24-well microtiter plate and sprayed with aqueous test solutions prepared from 10'000 ppm DMSO stock solutions. After drying, the leaf discs were infested with an aphid population of mixed ages. The samples were assessed for mortality 6 days after infestation.

[4] = tested on: Plutella xylostella; test: Plutella xylostella (diamond back moth), artificial diet; conditions: 120 h, read-out: effect in at least one of the two categories (mortality or growth inhibition); for percent effect (mortality or growth inhibition) at 200 ppm: application rate 200 ppm, L2 larvae, 5 days after infestation
Procedure, shortened: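 L2 larvae (10-15 per well) fed on compound-treated, dried artificial diet; test solutions diluted in water from 10'000 ppm DMSO stocks. Readout 5 days post-infestation as mortality or growth inhibition versus untreated diet, with at least 80% effect at 200 ppm as threshold.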

[5] = tested on: Spodoptera littoralis; test: Spodoptera littoralis (Egyptian cotton leaf worm), sprayed cotton leaf discs; conditions: foliar, 72 h, read-out: control (mortality, anti-feeding effect, growth inhibition)
Procedure, shortened: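 Five first-instar larvae placed on dried cotton leaf discs (on agar) previously sprayed with aqueous dilutions of 10'000 ppm DMSO stocks. Scored at 3 days against untreated discs for mortality, feeding inhibition and growth inhibition; any category above untreated counts as control.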

[6] = tested on: Tetranychus urticae; test: Tetranychus urticae (two-spotted spider mite): feeding/contact activity; conditions: 192 h
Description: Bean leaf discs on agar in 24-well microtiter plates were sprayed with aqueous test solutions prepared from 10'000 ppm DMSO stock solutions. After drying the leaf discs were infested with a mite population of mixed ages. The samples were assessed for mortality on mixed population (mobile stages) 8 days after infestation.

[7] = tested on: Thrips tabaci; test: Thrips tabaci (onion thrips): feeding/contact activity; conditions: 144 h
Description: Sunflower leaf discs were placed on agar in 24-well microtiter plates and sprayed with aqueous test solutions prepared from 10'000 ppm DMSO stock solutions. After drying the leaf discs were infested with a Thrips population of mixed ages. The samples were assessed for mortality 6 days after infestation.

[8] = application rate 200 ppm, aphid population of mixed ages, 6 days after infestation, read-out: mortality
[9] = application rate 200 ppm, L1 larvae, 3 days after infestation
[10] = application rate 200 ppm, mixed population (mobile stages), 8 days after infestation, read-out: mortality
[11] = application rate 200 ppm, Thrips population of mixed ages, 6 days after infestation, read-out: mortality

Cc1cc(C2=NO[C@@](c3cc(Cl)c(OC(F)F)c(Cl)c3)(C(F)(F)F)C2)ccc1C(=O)N[C@@H]1CON(S(C)(=O)=O)C1 [Compound A204, 4-[(5S)-5-[3,5-dichloro-4-(difluoromethoxy)phenyl]-5-(trifluoromethyl)-4H-1,2-oxazol-3-yl]-2-methyl-N-[(4S)-2-methylsulfonyl-1,2-oxazolidin-4-yl]benzamide]
≥ 80%: percent effect (mortality or growth inhibition) at 200 ppm [1] | percent effect (mortality or growth inhibition) at 200 ppm [2] | mortality at 200 ppm [3, 8] | percent effect (mortality or growth inhibition) at 200 ppm [4] | mortality at 200 ppm [5, 9] | mortality at 200 ppm [6, 10] | mortality at 200 ppm [7, 11]

Cc1cc(C2=NO[C@@](c3cc(Cl)c(F)c(Cl)c3)(C(F)(F)F)C2)ccc1C(=O)N[C@@H]1CON(S(=O)(=O)F)C1 [Compound A213, (4S)-4-[[4-[(5S)-5-(3,5-dichloro-4-fluorophenyl)-5-(trifluoromethyl)-4H-1,2-oxazol-3-yl]-2-methylbenzoyl]amino]-1,2-oxazolidine-2-sulfonyl fluoride]
≥ 80%: percent control (mortality or growth inhibition) at 200 ppm [1] | percent control (mortality or growth inhibition) at 200 ppm [2] | mortality at 200 ppm [3] | percent control (mortality or growth inhibition) at 200 ppm [4] | mortality at 200 ppm [5] | mortality at 200 ppm [6] | mortality at 200 ppm [7]

Cc1cc(C2=NO[C@@](c3cc(Cl)c(Cl)c(Cl)c3)(C(F)(F)F)C2)ccc1C(=O)NC1CON(S(=O)(=O)N(C)CC2CO2)C1 (stereo partly drawn) [Compound A83, 2-methyl-N-[2-[methyl(oxiran-2-ylmethyl)sulfamoyl]isoxazolidin-4-yl]-4-[(5S)-5-(3,4,5-trichlorophenyl)-5-(trifluoromethyl)-4H-isoxazol-3-yl]benzamide]
≥ 80%: percent effect (mortality or growth inhibition) at 200 ppm [1] | percent effect (mortality or growth inhibition) at 200 ppm [2] | mortality at 200 ppm [3, 8] | percent effect (mortality or growth inhibition) at 200 ppm [4] | mortality at 200 ppm [5, 9] | mortality at 200 ppm [6, 10] | mortality at 200 ppm [7, 11]

Cc1cc(C2=NO[C@@](c3cc(Cl)cc(Cl)c3)(C(F)(F)F)C2)ccc1C(=O)N[C@H]1CON(S(=O)(=O)F)C1 [Compound A198, (4R)-4-[[4-[(5S)-5-(3,5-dichlorophenyl)-5-(trifluoromethyl)-4H-isoxazol-3-yl]-2-methyl-benzoyl]amino]isoxazolidine-2-sulfonyl fluoride]
≥ 80%: percent control (mortality or growth inhibition) at 200 ppm [1] | percent control (mortality or growth inhibition) at 200 ppm [2] | mortality at 200 ppm [3] | percent control (mortality or growth inhibition) at 200 ppm [4] | mortality at 200 ppm [5] | mortality at 200 ppm [6] | mortality at 200 ppm [7]

Cc1cc(C2=NO[C@@](c3ccc(F)c(C(F)(F)F)c3)(C(F)(F)F)C2)ccc1C(=O)N[C@H]1CON(S(C)(=O)=O)C1 [Compound A183]
≥ 80%: percent effect (mortality or growth inhibition) at 200 ppm [1] | percent effect (mortality or growth inhibition) at 200 ppm [2] | mortality at 200 ppm [3, 8] | percent effect (mortality or growth inhibition) at 200 ppm [4] | mortality at 200 ppm [5, 9] | mortality at 200 ppm [6, 10] | mortality at 200 ppm [7, 11]

Cc1cc(C2=NO[C@](c3cc(Cl)cc(C(F)(F)F)c3)(C(F)(F)F)C2)ccc1C(=O)N[C@H]1CON(S(=O)(=O)CCl)C1 [Compound A217]
≥ 80%: percent effect (mortality or growth inhibition) at 200 ppm [1] | percent effect (mortality or growth inhibition) at 200 ppm [2] | mortality at 200 ppm [3, 8] | percent effect (mortality or growth inhibition) at 200 ppm [4] | mortality at 200 ppm [5, 9] | mortality at 200 ppm [6, 10] | mortality at 200 ppm [7, 11]

Cc1cc(C2=NO[C@@](c3cc(Cl)c(F)c(Cl)c3)(C(F)(F)F)C2)ccc1C(=O)N[C@H]1CON(S(=O)(=O)C(F)F)C1 [Compound A226, 4-[(5S)-5-(3,5-dichloro-4-fluorophenyl)-5-(trifluoromethyl)-4H-1,2-oxazol-3-yl]-N-[(4R)-2-(difluoromethylsulfonyl)-1,2-oxazolidin-4-yl]-2-methylbenzamide]
≥ 80%: percent effect (mortality or growth inhibition) at 200 ppm [1] | percent effect (mortality or growth inhibition) at 200 ppm [2] | mortality at 200 ppm [3, 8] | percent effect (mortality or growth inhibition) at 200 ppm [4] | mortality at 200 ppm [5, 9] | mortality at 200 ppm [6, 10] | mortality at 200 ppm [7, 11]

Cc1cc(C2=NO[C@](c3ccc(F)c(C(F)(F)F)c3)(C(F)(F)F)C2)ccc1C(=O)N[C@@H]1CON(S(=O)(=O)N(C)C)C1 [Compound A184]
≥ 80%: percent effect (mortality or growth inhibition) at 200 ppm [1] | percent effect (mortality or growth inhibition) at 200 ppm [2] | mortality at 200 ppm [3, 8] | percent effect (mortality or growth inhibition) at 200 ppm [4] | mortality at 200 ppm [5, 9] | mortality at 200 ppm [6, 10] | mortality at 200 ppm [7, 11]

Cc1cc(C2=NO[C@@](c3cc(Cl)cc(Cl)c3)(C(F)(F)F)C2)ccc1C(=O)N[C@@H]1CON(S(=O)(=O)CBr)C1 [Compound A173, N-[(4S)-2-(bromomethylsulfonyl)-1,2-oxazolidin-4-yl]-4-[(5S)-5-(3,5-dichlorophenyl)-5-(trifluoromethyl)-4H-1,2-oxazol-3-yl]-2-methylbenzamide]
≥ 80%: percent effect (mortality or growth inhibition) at 200 ppm [1] | percent effect (mortality or growth inhibition) at 200 ppm [2] | mortality at 200 ppm [3, 8] | percent effect (mortality or growth inhibition) at 200 ppm [4] | mortality at 200 ppm [5, 9] | mortality at 200 ppm [6, 10] | mortality at 200 ppm [7, 11]

Cc1cc(C2=NO[C@@](c3cc(Cl)c(C(F)F)c(Cl)c3)(C(F)(F)F)C2)ccc1C(=O)N[C@@H]1CON(S(C)(=O)=O)C1 [Compound A197, 4-[(5S)-5-[3,5-dichloro-4-(difluoromethyl)phenyl]-5-(trifluoromethyl)-4H-1,2-oxazol-3-yl]-2-methyl-N-[(4S)-2-methylsulfonyl-1,2-oxazolidin-4-yl]benzamide]
≥ 80%: percent effect (mortality or growth inhibition) at 200 ppm [1] | percent effect (mortality or growth inhibition) at 200 ppm [2] | mortality at 200 ppm [3, 8] | percent effect (mortality or growth inhibition) at 200 ppm [4] | mortality at 200 ppm [5, 9] | mortality at 200 ppm [6, 10] | mortality at 200 ppm [7, 11]

CCS(=O)(=O)N1CC(NC(=O)c2ccc(C3=NO[C@@](c4cc(Cl)c(F)c(Cl)c4)(C(F)(F)F)C3)cc2C)CO1 (stereo partly drawn) [Compound A4]
≥ 80%: percent effect (mortality or growth inhibition) at 200 ppm [1] | percent effect (mortality or growth inhibition) at 200 ppm [2] | mortality at 200 ppm [3, 8] | percent effect (mortality or growth inhibition) at 200 ppm [4] | mortality at 200 ppm [5, 9] | mortality at 200 ppm [6, 10] | mortality at 200 ppm [7, 11]

Cc1cc(C2=NO[C@@](c3cc(Cl)c(F)c(Cl)c3)(C(F)(F)F)C2)ccc1C(=O)NC1CON(S(=O)(=O)CCCl)C1 (stereo partly drawn) [Compound A7, N-[2-(2-chloroethylsulfonyl)isoxazolidin-4-yl]-4-[(5S)-5-(3,5-dichloro-4-fluoro-phenyl)-5-(trifluoromethyl)-4H-isoxazol-3-yl]-2-methyl-benzamide]
≥ 80%: percent control (mortality or growth inhibition) at 200 ppm [1] | percent control (mortality or growth inhibition) at 200 ppm [2] | mortality at 200 ppm [3] | percent control (mortality or growth inhibition) at 200 ppm [4] | mortality at 200 ppm [5] | mortality at 200 ppm [6] | mortality at 200 ppm [7]
